Peptide text beside a SMILES is read from it. * marks the point of attachment. Cbz = O=C(OCc1ccccc1)*
What was measured:
UBR1 [1] = assay: Inhibition of R-nsP4 degradation by in vitro transcription/translation method; assay type: biochemical; details: compound 1 uM, 30° C. for 40 minutes, DHFR-Ub-R-nsP4 plasmid, compared to the control
Protocol: A TnT® Quick Coupled Transcription/Translation System kit was used to confirm the R-nsP4 expression of the compounds. After a pre-mix was made using Transcend Biotin-Lysyl-tRNA, methionine, bestatin, a TnTquick Master mix and a DHFR-Ub-R-nsP4 plasmid, the pre-mix was mixed with a compound (1 uM). After each sample was reacted at 30° C. for 40 minutes, a 5×SDS loading dye was added thereto. After the resulting mixture was reacted at 95° C. for 2 minutes, 5 uL was taken and aliquoted into each well of an acrylamide gel, and then an immunoblotting method was performed, and the experimental results are illustrated in [FIG. 2]. For an in vitro transcription/translation method, a representative experiment was schematized from three or more independent experiments.

UBR1 [2] = molecular target: T1, UBR1 (Rattus norvegicus, UniProt A0A8I5ZK69); assay: Inhibition of muscle cell actin degradation by immunoblotting (L6 cells); assay type: cell-based; details: compound 5 uM alone, 24 hours, immunoblot
T1 construct: endogenous in cells; host or cells: L6 rat muscle-derived cells
Protocol: To evaluate the actin degradation of compounds in muscle cells, a L6 cell line, which is a rat muscle-derived cell, was cultured using a DMEM medium containing 10% FBS and 1% streptomycin/penicillin in an incubator in which 5% carbon dioxide was maintained. In order to measure the UBR1 binding strength according to the treatment with a representative compound selected from the present compounds, cells were aliquoted into a 12-well plate. The cells were additionally cultured for 24 hours so as to be completely attached to the surface of the plate. […] To extract proteins from the collected cells, 50 uL of a lysis buffer (20 mM Tris, pH 7.4, 150 mM NaCl, 1% Triton-X-100, 2 mM NaF, 2 mM EDTA, 2 mM b-glycerophosphate, 5 mM sodium orthovanadate, 1 mM PMSF, leupeptin, aprotenin) was injected into each sample, and the cells were lysed. A sample buffer was added to each sample based on the measured total protein concentration, and the mixture was reacted at 100° C. for 5 minutes. After 5 uL was taken from the completely reacted sample and aliquoted into each well of an acrylamide gel, an immunoblotting method was performed, and the experimental results were illustrated in [FIG. 3]. For the immunoblotting method, a representative experiment was schematized from three or more independent experiments.

L6 cell line = assay: Immunoblotting of muscle actin levels in L6 cells after MG132 treatment; assay type: cell-based, rat; details: MG132 10 uM alone, 24 hours, immunoblot, compared to a control
Protocol: A L6 cell line, which is a rat muscle-derived cell, was cultured using a DMEM medium containing 10% FBS and 1% streptomycin/penicillin in an incubator in which 5% carbon dioxide was maintained, and cells were aliquoted into a 12-well plate after the culture. The cells were additionally cultured for 24 hours so as to be completely attached to the surface of the plate. To confirm whether MG132 increased UBR1 binding, cells were collected after treatment with MG132 (10 uM) alone for 24 hours. To extract proteins from the collected cells, 50 uL of a lysis buffer (20 mM Tris, pH 7.4, 150 mM NaCl, 1% Triton-X-100, 2 mM NaF, 2 mM EDTA, 2 mM b-glycerophosphate, 5 mM sodium orthovanadate, 1 mM PMSF, leupeptin, aprotenin) was injected into each sample, and the cells were lysed. A sample buffer was added to each sample based on the measured total protein concentration, and the mixture was reacted at 100° C. for 5 minutes. After 5 uL was taken from the completely reacted sample and aliquoted into each well of an acrylamide gel, an immunoblotting method was performed, and the experimental results are illustrated in [FIG. 1].
For the immunoblotting method, a representative experiment was schematized from three or more independent experiments.
Referring to FIG. 1, it was confirmed that the levels of ACTA1, ACTC1, and ACTG2 were increased by MG132 compared to a control. Further, it was confirmed that the levels of ACTA1 and ACTG2 were increased when a UBR protein was knocked down. That is, it could be confirmed that muscle actin is an Arg/N-degron pathway substrate.

T1 sequence (A0A8I5ZK69 1-1749): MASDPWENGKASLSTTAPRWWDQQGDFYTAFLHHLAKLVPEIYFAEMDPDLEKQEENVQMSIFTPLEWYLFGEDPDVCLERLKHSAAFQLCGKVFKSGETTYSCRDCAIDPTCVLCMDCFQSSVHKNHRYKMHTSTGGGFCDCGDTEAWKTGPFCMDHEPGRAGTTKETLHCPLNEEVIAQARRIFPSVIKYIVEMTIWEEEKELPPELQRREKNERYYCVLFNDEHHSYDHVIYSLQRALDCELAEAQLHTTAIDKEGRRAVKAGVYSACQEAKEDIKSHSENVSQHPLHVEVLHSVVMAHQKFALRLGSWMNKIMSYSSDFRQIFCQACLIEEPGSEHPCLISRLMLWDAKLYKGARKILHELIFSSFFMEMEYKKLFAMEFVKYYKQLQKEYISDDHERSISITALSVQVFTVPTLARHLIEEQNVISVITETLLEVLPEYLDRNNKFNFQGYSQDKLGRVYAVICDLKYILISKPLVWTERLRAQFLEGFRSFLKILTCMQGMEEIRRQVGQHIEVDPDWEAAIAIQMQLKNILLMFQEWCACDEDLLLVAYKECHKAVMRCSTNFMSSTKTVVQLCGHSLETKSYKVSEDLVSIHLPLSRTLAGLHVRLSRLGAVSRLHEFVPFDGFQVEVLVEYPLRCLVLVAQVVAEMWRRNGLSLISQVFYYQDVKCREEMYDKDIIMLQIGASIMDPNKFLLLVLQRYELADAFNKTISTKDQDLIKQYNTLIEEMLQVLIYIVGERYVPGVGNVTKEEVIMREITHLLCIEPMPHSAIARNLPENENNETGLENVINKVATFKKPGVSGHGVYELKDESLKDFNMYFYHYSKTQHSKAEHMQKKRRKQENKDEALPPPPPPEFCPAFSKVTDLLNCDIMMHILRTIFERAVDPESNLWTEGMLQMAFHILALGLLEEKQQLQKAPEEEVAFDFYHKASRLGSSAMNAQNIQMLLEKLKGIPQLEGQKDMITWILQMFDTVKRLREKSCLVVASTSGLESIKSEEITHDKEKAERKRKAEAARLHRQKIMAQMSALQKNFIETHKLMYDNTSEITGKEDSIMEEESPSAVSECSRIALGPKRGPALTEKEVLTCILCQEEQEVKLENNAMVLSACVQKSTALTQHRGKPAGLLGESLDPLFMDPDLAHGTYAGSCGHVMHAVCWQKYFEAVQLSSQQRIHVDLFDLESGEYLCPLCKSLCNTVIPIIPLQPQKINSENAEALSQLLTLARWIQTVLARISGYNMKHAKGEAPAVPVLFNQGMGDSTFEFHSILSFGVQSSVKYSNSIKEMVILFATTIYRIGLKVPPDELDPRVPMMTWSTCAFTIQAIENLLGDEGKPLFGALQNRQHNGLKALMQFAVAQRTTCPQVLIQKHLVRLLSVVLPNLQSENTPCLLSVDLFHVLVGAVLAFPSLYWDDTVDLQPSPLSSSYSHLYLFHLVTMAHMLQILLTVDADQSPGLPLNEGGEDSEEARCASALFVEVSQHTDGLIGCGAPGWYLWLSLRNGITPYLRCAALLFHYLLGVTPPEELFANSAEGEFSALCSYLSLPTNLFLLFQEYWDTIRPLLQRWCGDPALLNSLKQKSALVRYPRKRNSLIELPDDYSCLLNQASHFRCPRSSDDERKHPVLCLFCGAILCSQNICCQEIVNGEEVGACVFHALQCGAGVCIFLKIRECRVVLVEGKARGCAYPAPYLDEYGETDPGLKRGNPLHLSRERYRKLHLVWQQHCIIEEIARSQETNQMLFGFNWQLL

| Compound | level of R-nsP4 (UBR1 [1]) | level of ACTA1 (UBR1 [2]) | level of ACTA1 (L6 cell line) | level of ACTC1 (L6 cell line) | level of ACTG2 (L6 cell line) |
| --- | --- | --- | --- | --- | --- |
| COCCCCC(=O)Nc1cc(C(C)=O)ccc1Cl [Compound 1, N-(5-acetyl-2-chlorophenyl)-5-methoxypentanamide] | increased | further increased |  |  |  |
| COCCCCC(=O)Nc1cc(C(N)=O)ccc1Cl [Compound 2, 4-chloro-3-(5-methoxypentanamido)benzamide] | increased | further increased |  |  |  |
| CC(C)C[C@@H](C=O)NC(=O)[C@H](CC(C)C)NC(=O)[C@H](CC(C)C)NC(=O)OCc1ccccc1 [MG132] (Cbz-Leu-Leu-Leu-aldehyde) |  |  | increased | increased | increased |
